Source: ChEMBL document CHEMBL1201862, “PubChem BioAssay data set” (2004)
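Following 48 hours of exposure in 96-well plates, responses at five concentrations were used to interpolate endpoints linearly. GI50 is the concentration that inhibits growth by half.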 Active and inactive are the calls of the source. Cut-off read from the data, not from the text of the source: active = GI50 up to about 1.1 µM and inactive = higher.

Assays:
Assay in all cases: inhibition of tumour cell growth, NCI panel, 48 h
[1] = system: OVCAR-3
[2] = system: HL-60
[3] = system: CCRF-CEM
[4] = system: BT-549
[5] = system: CAKI-1
[6] = system: HOP-62
[7] = system: EKVX
[8] = system: IGROV-1
[9] = system: SR
[10] = system: M14
[11] = system: HCT-15
[12] = system: LOX IMVI
[13] = system: T47D
[14] = system: U-251
[15] = system: SW-620
[16] = system: MDA-MB-435
[17] = system: SF-268
[18] = system: NCI/ADR-RES
[19] = system: OVCAR-5
[20] = system: UO-31

| Compound | GI50 [1] | GI50 [2] | GI50 [3] | GI50 [4] | GI50 [5] | GI50 [6] | GI50 [7] | GI50 [8] | GI50 [9] | GI50 [10] | GI50 [11] [µM] | GI50 [12] | GI50 [13] | GI50 [14] | GI50 [15] | GI50 [16] | GI50 [17] | GI50 [18] | GI50 [19] | GI50 [20] |
| --- | --- | --- | --- | --- | --- | --- | --- | --- | --- | --- | --- | --- | --- | --- | --- | --- | --- | --- | --- | --- |
| COCn1cnc2c(=O)n(-c3ccc(OC)cc3)c(=S)n(-c3ccc(OC)cc3)c21 | > 100 µM (inactive) | > 100 µM (inactive) | > 100 µM (inactive) | > 100 µM (inactive) | > 100 µM (inactive) | > 100 µM (inactive) | > 100 µM (inactive) | > 100 µM (inactive) | > 100 µM (inactive) | > 100 µM (inactive) | > 100 | > 100 µM (inactive) | > 100 µM (inactive) | > 100 µM (inactive) | > 100 µM (inactive) | > 100 µM (inactive) | > 100 µM (inactive) | > 100 µM (inactive) | > 100 µM (inactive) | > 100 µM (inactive) |
| O=C1OC(c2ccccc2)=N/C1=C\c1ccc(N(CCCl)CCCl)cc1 | > 76.2 µM (inactive) | 45.4 µM (inactive) | 26 µM (inactive) | > 100 µM (inactive) | > 100 µM (inactive) | > 89.5 µM (inactive) | > 100 µM (inactive) | > 100 µM (inactive) | 11.6 µM (inactive) | > 100 µM (inactive) | > 100 | > 91.4 µM (inactive) | 14.5 µM (inactive) | > 100 µM (inactive) | > 100 µM (inactive) | > 100 µM (inactive) | > 88.7 µM (inactive) | > 85.1 µM (inactive) | > 100 µM (inactive) | > 78.3 µM (inactive) |
| CCc1nc(N)nc(N)c1-c1ccc(N(C)Cc2ccccc2)c([N+](=O)[O-])c1 | 0.697 µM (active) | < 0.01 µM (active) | 0.0237 µM (active) | 4.9 µM (inactive) | 0.0706 µM (active) | 0.13 µM (active) | 1.16 µM (inactive) | 0.128 µM (active) | 0.0187 µM (active) | 0.064 µM (active) | < 0.01 | < 0.0114 µM (active) | 1.71 µM (inactive) | 0.0374 µM (active) | 0.0155 µM (active) | 0.0811 µM (active) | 0.303 µM (active) | 0.184 µM (active) | 8.17 µM (inactive) | 0.458 µM (active) |
| O=C1C2=C(CC3=C(C2)CS(=O)(=O)C3)C(=O)C2=C1CC1=C(C2)CS(=O)(=O)C1 | 3.35 µM (inactive) | 8.93 µM (inactive) | 12.8 µM (inactive) | 18.5 µM (inactive) | 36 µM (inactive) | 20.5 µM (inactive) | 33.2 µM (inactive) | 15.4 µM (inactive) | 4.4 µM (inactive) | > 37.7 µM (inactive) | 34.1 | 14.3 µM (inactive) | 2.34 µM (inactive) | 13.5 µM (inactive) | 18 µM (inactive) | 9.18 µM (inactive) | > 26.4 µM (inactive) | 16.3 µM (inactive) | 43.4 µM (inactive) | 38.1 µM (inactive) |
| CCCC(=O)NC(Nc1ccc(S(=O)(=O)Nc2nc(C)cc(C)n2)cc1)(C(F)(F)F)C(F)(F)F | > 100 µM (inactive) | > 100 µM (inactive) | > 100 µM (inactive) | > 100 µM (inactive) | > 100 µM (inactive) | > 100 µM (inactive) | > 100 µM (inactive) | > 100 µM (inactive) | > 100 µM (inactive) | > 100 µM (inactive) | > 100 | > 100 µM (inactive) | > 100 µM (inactive) | > 100 µM (inactive) | > 100 µM (inactive) | > 100 µM (inactive) | > 100 µM (inactive) | > 100 µM (inactive) | > 100 µM (inactive) | > 100 µM (inactive) |
| COC(C(=O)C(O)C(C)O)C1CC2C=C3C=C(OC4CC(OC5CC(O)C(OC)C(C)O5)C(OC(C)=O)C(C)O4)C(C)C(O)=C3C(O)=C2C(=O)C1OC1CC(OC2CC(OC3CC(C)(O)C(OC(=O)C(C)C)C(C)O3)C(O)C(C)O2)C(O)C(C)O1 (stereo not given) | < 0.01 µM (active) | < 0.01 µM (active) | < 0.01 µM (active) | < 0.01 µM (active) | < 0.01 µM (active) | < 0.01 µM (active) | < 0.01 µM (active) | < 0.01 µM (active) | < 0.01 µM (active) | < 0.01 µM (active) | < 0.01 | < 0.01 µM (active) | < 0.01 µM (active) | < 0.01 µM (active) | < 0.01 µM (active) | < 0.01 µM (active) | < 0.01 µM (active) | < 0.01 µM (active) | < 0.01 µM (active) | < 0.01 µM (active) |
| N=c1nc(N)nc(N)n1-c1ccc(S(N)(=O)=O)cc1 | > 100 µM (inactive) | > 100 µM (inactive) | > 100 µM (inactive) | > 100 µM (inactive) | > 100 µM (inactive) | > 100 µM (inactive) | > 100 µM (inactive) | > 100 µM (inactive) | > 100 µM (inactive) | > 100 µM (inactive) | > 100 | > 100 µM (inactive) | > 100 µM (inactive) | > 100 µM (inactive) | > 100 µM (inactive) | > 100 µM (inactive) | > 100 µM (inactive) | > 100 µM (inactive) | > 100 µM (inactive) | > 100 µM (inactive) |
| CC(C)Oc1cccc(N2C(NCc3c[nH]c4ccccc34)=Nc3ccncc3S2(=O)=O)c1 | 12.9 µM (inactive) | 21.5 µM (inactive) | 35.2 µM (inactive) | 34.8 µM (inactive) | 32.1 µM (inactive) | 30.9 µM (inactive) | 23.1 µM (inactive) | 20.4 µM (inactive) | 28.8 µM (inactive) | 21 µM (inactive) | 22.5 | 26.9 µM (inactive) | 5.47 µM (inactive) | 29.4 µM (inactive) | 33.7 µM (inactive) | 32.4 µM (inactive) | 32.2 µM (inactive) | 19.7 µM (inactive) | 47.8 µM (inactive) | 47.4 µM (inactive) |
| CCOC(=O)C1OC(C2(C)OC3(OC4(C=CC3O)OC(C(C)C(=O)C(C)C(O)C(C)CC(C)c3c(Cl)cc(C)c(O)c3C(=O)O)C(C)CC4C)C(C)C2OC)CC1O (stereo not given) | 0.45 µM (active) | 0.542 µM (active) | 0.0828 µM (active) | 2.08 µM (inactive) | 0.752 µM (active) | 0.0535 µM (active) | 1.09 µM (active) | 2.1 µM (inactive) | 0.207 µM (active) | 0.48 µM (active) | 0.453 | 0.413 µM (active) | 0.955 µM (active) | 0.189 µM (active) | 0.251 µM (active) | 0.286 µM (active) | 0.155 µM (active) | 1.24 µM (inactive) | 2.69 µM (inactive) | 1.18 µM (inactive) |
| FC(F)(F)c1ccc2c(-c3cc[nH]c3)ccnc2c1 | 27.4 µM (inactive) | 16.7 µM (inactive) | 32.6 µM (inactive) | 22.6 µM (inactive) | 31.4 µM (inactive) | 35.5 µM (inactive) | 33 µM (inactive) | 39.5 µM (inactive) | 27 µM (inactive) | 34.5 µM (inactive) | > 100 | 19.4 µM (inactive) | > 100 µM (inactive) | 44.3 µM (inactive) | 36.1 µM (inactive) | 35 µM (inactive) | > 10 µM (inactive) | 37.1 µM (inactive) | 44.9 µM (inactive) | 20.9 µM (inactive) |
